Experimental data published in article doi:10.1101/2021.10.07.463234v2 (biorxiv, 2021).
Structures can show the parent of a compound that is named as a salt.

Biological target: SARS-CoV-2 Mac1 (Severe acute respiratory syndrome coronavirus 2, UniProt P0DTD1)
Experiment: biochemical
Conditions: for inhibition at 100 µM: read-out: %inhibition; for %inhibition: 100 µM, inhibitor

Compound	inhibition at 100 µM	%inhibition
CC(=O)OCC(=O)[C@@]1(O)CC[C@H]2[C@@H]3CCC4=CC(=O)CC[C@]4(C)[C@@]3(F)[C@@H](O)C[C@@]21C [Fludrocortisone acetate]	0%	–
O=C(O)c1ccccc1Nc1cccc(C(F)(F)F)c1 [Flufenamic acid]	3.41%	–
CCOC(=O)c1ncn2c1CN(C)C(=O)c1cc(F)ccc1-2 [Flumazenil]	5.44%	–
CC1CCc2cc(F)cc3c(=O)c(C(=O)O)cn1c23 (stereo not drawn) [Flumequine]	0%	–
C[C@@H]1C[C@H]2[C@@H]3C[C@H](F)C4=CC(=O)C=C[C@]4(C)[C@@]3(F)[C@@H](O)C[C@]2(C)[C@@]1(O)C(=O)CO [Flumethasone]	28.1%	–
Cc1c(Nc2ncccc2C(=O)O)cccc1C(F)(F)F [Flunixin Meglumin]	0%	–
CC1(C)O[C@@H]2C[C@H]3[C@@H]4C[C@H](F)C5=CC(=O)C=C[C@]5(C)[C@@]4(F)[C@@H](O)C[C@]3(C)[C@]2(C(=O)CO)O1 [Fluocinolone Acetonide]	0%	–
CC(=O)OCC(=O)[C@@]12OC(C)(C)O[C@@H]1C[C@H]1[C@@H]3C[C@H](F)C4=CC(=O)C=C[C@]4(C)[C@@]3(F)[C@@H](O)C[C@@]12C [Fluocinonide]	24.1%	–
O=C1OC2(c3ccc(O)cc3Oc3cc(O)ccc32)c2ccccc21 [Fluorescein]	24.9%	–
CC(=O)O[C@]1(C(C)=O)CC[C@H]2[C@@H]3C[C@H](C)C4=CC(=O)C=C[C@]4(C)[C@@]3(F)[C@@H](O)C[C@@]21C [Fluorometholone Acetate]	22.8%	–
CC(=O)[C@@]1(O)CC[C@H]2[C@@H]3C[C@H](C)C4=CC(=O)C=C[C@]4(C)[C@@]3(F)[C@@H](O)C[C@@]21C [Fluorometholone]	–	0%
O=c1[nH]cc(F)c(=O)[nH]1 [Fluorouracil (5-Fluoracil, 5-FU)]	0%	–
OCCN1CCN(CC/C=C2/c3ccccc3Sc3ccc(C(F)(F)F)cc32)CC1 [Flupenthixol dihydrochloride]	12.3%	–
CCOC(=O)Nc1ccc(NCc2ccc(F)cc2)nc1N [Flupirtine maleate]	4.99%	–
CC(C(=O)O)c1ccc(-c2ccccc2)c(F)c1 (stereo not drawn) [Flurbiprofen]	2.76%	–
CC(C)C(=O)Nc1ccc([N+](=O)[O-])c(C(F)(F)F)c1 [Flutamide]	0%	–
CCC(=O)O[C@]1(C(=O)SCF)[C@H](C)C[C@H]2[C@@H]3C[C@H](F)C4=CC(=O)C=C[C@]4(C)[C@@]3(F)[C@@H](O)C[C@@]21C [Fluticasone propionate]	9.66%	–
COCCCC/C(=N\OCCN)c1ccc(C(F)(F)F)cc1 [Fluvoxamine maleate]	0%	–
Nc1nc(=O)c2nc(CNc3ccc(C(=O)N[C@@H](CCC(=O)O)C(=O)O)cc3)cnc2[nH]1 [Folic acid]	11.4%	–
Cc1cn[nH]c1 [Fomepizole]	0%	–
CO[C@H]1O[C@H](COS(=O)(=O)O)[C@@H](O[C@@H]2O[C@@H](C(=O)O)[C@@H](O[C@H]3O[C@H](COS(=O)(=O)O)[C@@H](O[C@@H]4O[C@H](C(=O)O)[C@@H](O[C@H]5O[C@H](COS(=O)(=O)O)[C@@H](O)[C@H](O)[C@H]5NS(=O)(=O)O)[C@H](O)[C@H]4O)[C@H](OS(=O)(=O)O)[C@H]3NS(=O)(=O)O)[C@H](O)[C@H]2OS(=O)(=O)O)[C@H](O)[C@H]1NS(=O)(=O)O [Fondaparinux Sodium]	0%	–
COc1cc2c(Oc3ccc(NC(=O)C4(C(=O)Nc5ccc(F)cc5)CC4)cc3F)ccnc2cc1OCCCN1CCOCC1 [Foretinib (GSK1363089)]	0%	–
C[C@]12CCC(=O)C(O)=C1CC[C@@H]1[C@@H]2CC[C@]2(C)C(=O)CC[C@@H]12 [Formestane]	0%	–
C[C@@H](O[C@H]1OCCN(Cc2nn(P(=O)(O)O)c(=O)[nH]2)[C@H]1c1ccc(F)cc1)c1cc(C(F)(F)F)cc(C(F)(F)F)c1 [Fosaprepitant dimeglumine salt]	3%	–

Compound	inhibition at 100 µM	%inhibition
O=C(O)P(=O)(O)O [Foscarnet Sodium]	2.46%	–
C[C@@H]1O[C@@H]1P(=O)(O)O [Fosfomycin Disodium]	0%	–
O=C(O)c1ccccc1OP(=O)(O)O [Fosfosal]	4.81%	–
CCC(=O)O[C@@H](O[P@](=O)(CCCCc1ccccc1)CC(=O)N1C[C@H](C2CCCCC2)C[C@H]1C(=O)O)C(C)C [Fosinopril Sodium]	0%	–
COc1cc(Nc2ncc(F)c(Nc3ccc4c(n3)N(COP(=O)(O)O)C(=O)C(C)(C)O4)n2)cc(OC)c1OC [Fostamatinib (R788)]	–	0%
N[C@@H](CSCCCO)C(=O)O [Fudosteine]	0%	–
C[C@]12CC[C@@H]3c4ccc(O)cc4C[C@@H](CCCCCCCCC[S+]([O-])CCCC(F)(F)C(F)(F)F)[C@H]3[C@@H]1CC[C@@H]2O (stereo partly drawn) [Fulvestrant]	1.46%	–
CO[C@@H]1[C@H](OC(=O)/C=C/C=C/C=C/C=C/C(=O)O)CC[C@]2(CO2)[C@H]1[C@@]1(C)O[C@@H]1CC=C(C)C [Fumagillin]	23.6%	–
O=C(O)/C=C/C(=O)O [Fumaric acid]	1.89%	–
O=C1OC(CN2CCOCC2)CN1/N=C/c1ccc([N+](=O)[O-])o1 (stereo not drawn) [Furaltadone HCl]	15.8%	–
O=C1OCCN1/N=C/c1ccc([N+](=O)[O-])o1 [Furazolidone]	0%	–
NS(=O)(=O)c1cc(C(=O)O)c(NCc2ccco2)cc1Cl [Furosemide]	0%	–
CC(=O)O[C@H]1C[C@@]2(C)[C@@H](C[C@@H](O)[C@H]3[C@@]4(C)CC[C@@H](O)[C@@H](C)[C@@H]4CC[C@@]32C)/C1=C(\CCC=C(C)C)C(=O)O [Fusidate Sodium]	3.17%	–
NCC1(CC(=O)O)CCCCC1 [Gabapentin]	0%	–
COc1ccc2c3c1O[C@H]1C[C@@H](O)C=C[C@@]31CCN(C)C2 [Galanthamine HBr]	0%	–
C[C@]12CC[C@H](O)CC1=CC[C@@H]1[C@@H]2CC[C@]2(C)C(n3cnc4ccccc43)=CC[C@@H]12 [Galeterone]	31.2%	–
CC[N+](CC)(CC)CCOc1cccc(OCC[N+](CC)(CC)CC)c1OCC[N+](CC)(CC)CC [Gallamine Triethiodide]	3.8%	–
O=C(O)c1cc(O)c(O)c(O)c1 [Gallic acid]	0%	–
Cc1cccc(-c2nn3c(c2-c2ccnc4ccc(C(N)=O)cc24)CCC3)n1 [Galunisertib (LY2157299)]	0%	–
Nc1nc2c(ncn2COC(CO)CO)c(=O)[nH]1 [Ganciclovir]	49.4%	–
Cc1cc(Nc2cc(CN3CCOCC3)c3nc(C)c(Cc4ccc(Cl)cc4F)n3n2)n[nH]1 [Gandotinib (LY2784544)]	0%	–
CC(C)c1cc(-c2n[nH]c(=O)n2-c2ccc3c(ccn3C)c2)c(O)cc1O [Ganetespib (STA-9090)]	1.18%	–
COc1c(N2CCNC(C)C2)c(F)cc2c(=O)c(C(=O)O)cn(C3CC3)c12 (stereo not drawn) [Gatifloxacin]	1.88%	–
CC(C)=CCC/C(C)=C/CC/C(C)=C/CCC(=O)OC/C=C(\C)CCC=C(C)C [Gefarnate]	5.96%	–

Compound	inhibition at 100 µM	%inhibition
Nc1ccn([C@@H]2O[C@H](CO)[C@@H](O)C2(F)F)c(=O)n1 [Gemcitabine HCl]	–	0%
Nc1ccn([C@@H]2O[C@H](CO)[C@@H](O)C2(F)F)c(=O)n1 [Gemcitabine]	–	32.55%
Cc1ccc(C)c(OCCCC(C)(C)C(=O)O)c1 [Gemfibrozil]	45.1%	–
O=c1c(-c2ccc(O)cc2)coc2cc(O)cc(O)c12 [Genistein]	1.56%	–
C#C[C@]1(O)C=C[C@H]2[C@@H]3CCC4=CC(=O)CC[C@@H]4[C@H]3CC[C@@]21CC [Gestodene]	0%	–
Oc1cc(O)c(Cl)cn1 [Gimeracil]	0%	–
O=C(OCC(O)CO)c1ccccc1Nc1ccnc2cc(Cl)ccc12 (stereo not drawn) [Glafenine HCl]	16.2%	–
CCC1=C(C)CN(C(=O)NCCc2ccc(S(=O)(=O)NC(=O)N[C@H]3CC[C@H](C)CC3)cc2)C1=O [Glimepiride]	22.5%	–
Cc1cnc(C(=O)NCCc2ccc(S(=O)(=O)NC(=O)NC3CCCCC3)cc2)cn1 [Glipizide]	19.9%	–
N[C@H]1C(O)O[C@H](CO)[C@@H](O)[C@@H]1O (stereo partly drawn) [Glucosamine hydrochloride]	0%	–
N[C@@H](CCC(=O)N[C@@H](CS)C(=O)NCC(=O)O)C(=O)O [Glutathione]	0%	–
COc1ccc(Cl)cc1C(=O)NCCc1ccc(S(=O)(=O)NC(=O)NC2CCCCC2)cc1 [Glyburide (Glibenclamide)]	8.25%	–
NCC(=O)O [Glycine]	0%	–
C[N+]1(C)CCC(OC(=O)C(O)(c2ccccc2)C2CCCC2)C1 (stereo not drawn) [Glycopyrrolate]	0%	–
CC(C)C[C@H](NC(=O)CNC(=O)[C@H](Cc1ccc(O)cc1)NC(=O)[C@H](CO)NC(=O)[C@H](Cc1c[nH]c2ccccc12)NC(=O)[C@H](Cc1cnc[nH]1)NC(=O)[C@@H]1CCC(=O)N1)C(=O)N[C@@H](CCCNC(=N)N)C(=O)N1CCC[C@H]1C(=O)NCC(N)=O [Gonadorelin Acetate]	0%	–
CN1[C@@H]2CCC[C@H]1C[C@@H](NC(=O)c1nn(C)c3ccccc13)C2 [Granisetron HCl]	–	0%
CN1[C@@H]2CCC[C@H]1C[C@@H](NC(=O)c1nn(C)c3ccccc13)C2 [Granisetron]	–	0.5264%
C=C[C@@H]1C[C@]1(NC(=O)[C@@H]1C[C@@H]2CN1C(=O)[C@H](C(C)(C)C)NC(=O)O[C@@H]1C[C@H]1CCCCCc1nc3ccc(OC)cc3nc1O2)C(=O)NS(=O)(=O)C1CC1 [Grazoprevir]	0%	–
COC1=CC(=O)C[C@@H](C)[C@]12Oc1c(Cl)c(OC)cc(OC)c1C2=O [Griseofulvin]	0%	–
COc1ccccc1O [Guaiacol]	0%	–
COc1ccccc1OCC(O)CO (stereo not drawn) [Guaifenesin]	33.3%	–
N=C(N)N/N=C/c1c(Cl)cccc1Cl [Guanabenz Acetate]	0%	–
N=C(N)NCCN1CCCCCCC1 [Guanethidine Monosulfate]	–	5.593%
N=C(N)NCCN1CCCCCCC1 [Guanethidine Sulfate]	–	0%
